{"source": "patent US20230293521A1", "about": "“METHODS FOR SCREENING NOVEL CORONAVIRUS ANTIVIRALS AND METHODS OF USING ANTIVIRALS FOR THE TREATMENT OF CORONAVIRUS INFECTIONS” (priority 2020, published 2023)", "system": "SARS-CoV-2", "experiment": "Impedance-based (Maestro Z resistance/TEER) assay of SARS-CoV-2 cytopathic effect in Vero E6 monolayers", "type": "cell-based", "settings": "for IC90: Vero E6, MOI 0.01, normalized resistance at 48 hpi; for IC50: Vero E6, pre-treated 1 hour, MOI 0.01, normalized resistance at 48 hpi; for inhibitory activity against SARS-CoV-2 (percent inhibition relative to DMSO control): Vero E6, serial half-log dilutions, MOI 0.01, 48 hours", "key": {"[1]": {"settings": "Severe acute respiratory syndrome coronavirus 2, Vero C1008"}, "[2]": {"settings": "Severe acute respiratory syndrome coronavirus 2, Vero C1008, non-toxic doses, read-out: estimated IC50"}}, "note": "Like-named read-outs stand apart in the source and are kept apart here."}
{"smiles": "Nc1ncc(-c2ccnc(Nc3ccncc3)n2)c(CC2CC2)n1", "note": "[PIK-III]", "values": [{"measurement": "IC90", "setting": "[1]", "value": 1810, "unit": "nM"}, {"measurement": "IC50", "setting": "[2]", "value": "< 600", "unit": "nM"}]}
{"smiles": "CC(C)(O)CNc1ncc(-c2ccnc(Nc3ccncc3)n2)c(CC2CC2)n1", "note": "[VPS34-IN1]", "values": [{"measurement": "IC90", "setting": "[1]", "value": 2520, "unit": "nM"}, {"measurement": "IC50", "setting": "[2]", "value": "< 600", "unit": "nM"}]}
{"smiles": "CCCCCCCCCCC[C@@H](C[C@@H]1OC(=O)[C@H]1CCCCCC)OC(=O)[C@H](CC(C)C)NC=O", "note": "[Orlistat]", "values": [{"measurement": "completeness of inhibition of viral cytopathic effects", "setting": "with 500 µM, Vero E6", "value": "complete inhibition was not achieved"}]}
{"smiles": "CCC(CC)COC(=O)[C@H](C)N[P@](=O)(OC[C@H]1O[C@@](C#N)(c2ccc3c(N)ncnn23)[C@H](O)[C@@H]1O)Oc1ccccc1", "note": "[Remdesivir]", "values": [{"measurement": "IC50", "setting": "Severe acute respiratory syndrome coronavirus 2, Vero C1008, read-out: 50% inhibitory concentration (IC50)", "value": 1540, "unit": "nM"}]}
{"smiles": "CC1(C)Oc2ncnc(N)c2N=C1c1ccc([C@H]2CC[C@H](CC(=O)O)CC2)cc1", "note": "[T863]", "values": [{"measurement": "inhibitory activity against SARS-CoV-2 (percent inhibition relative to DMSO control)", "value": "Neither compound displayed any inhibitory activity"}]}
{"smiles": "CS(=O)(=O)O.O=C([C@@H]1CCCN(c2ccc3[nH]c(C4(n5cc(Cl)cn5)CC4)nc3n2)C1)N1CCCC1", "note": "[PF06424439]", "values": [{"measurement": "inhibitory activity against SARS-CoV-2 (percent inhibition relative to DMSO control)", "value": "Neither compound displayed any inhibitory activity"}]}
{"smiles": "CCC/C=C/C/C=C/C=C/C=N/NN=O", "note": "[Triacsin C]", "values": [{"measurement": "IC50", "setting": "read-out: 50% inhibitory concentration (IC50)", "value": "~20000", "unit": "nM"}]}
